# Laboratory results as given in PubChem BioAssay (NCI).
#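 Exposure lasted 48 hours, with cells grown in 96-well plates and compounds tested at five concentrations. The concentration for full growth arrest is given as TGI.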
# Test system: DU-145 prostate
# Assay: inhibition of tumour cell growth, NCI panel, 48 h
row,Structure (SMILES),TGI
1,CCOC(=O)NC(Nc1ccc(C)cc1)(C(F)(F)F)C(F)(F)F,> 100 µM

# Test system: HCT-15 colon
# Assay: inhibition of tumour cell growth, NCI panel, 48 h
row,Structure (SMILES),TGI
1,Cc1ccc(S(=O)(=O)c2[nH]cc(/C(=C\C3CCCCC3)[N+](=O)[O-])c2C2CCCCC2)cc1,0.46 µM
2,Nc1ccc2c(c1)C(=O)N1CCC[C@H]1C(=O)N2,> 100 µM
3,CO/N=C(\C(=O)OC(=NC1CCCCC1)NC1CCCCC1)c1csc(NC(c2ccccc2)(c2ccccc2)c2ccccc2)n1,> 10 µM
4,CC1(C)C(C#N)C1C1=C(N2CCOCC2)[C@]2(C)C(OC(=O)c3ccccc3)CC[C@@H]2C1 (some centres undefined),> 100 µM
5,N#Cc1n[nH]n(-c2ccc(Br)cc2)c1=O,> 100 µM
6,CO[C@@]12C[C@@H](C)C3=CCC(C)=C3CC1=C(C)C(=O)O2,> 100 µM
7,N=C(N)C1CN(CCc2c[nH]c3ccccc23)C(=O)NC1=O (centres undefined),> 100 µM
8,CC1(C)[C@@H](Cn2ccc(=O)[nH]c2=O)CC[C@@]1(C)CO,> 100 µM
9,Cn1c(=O)c2c(ncn2CCNC(CO)C(O)c2ccc([N+](=O)[O-])cc2)n(C)c1=O (centres undefined),> 100 µM
10,CCCNC(=O)NNC(=O)c1c[nH]c2nc(C)ccc2c1=O,> 100 µM
11,C=CCCON(C(=O)OC(C)(C)C)C(C)(C)C,> 100 µM
12,NC(N)=NS(=O)(=O)c1ccc(NNc2c3ccccc3nc3c(C(=O)Nc4ccc(S(=O)(=O)Nc5ncccn5)cc4)cccc23)cc1,> 100 µM
13,O=c1oc2ccccc2cc1-c1cc2ccccn2c1,> 100 µM
14,CC(=O)CCn1c(=S)sc2ccccc21,> 100 µM
15,CC1CC(OP(=O)(OCc2ccccc2)OCc2ccccc2)[C@@H](OCc2ccccc2)C(OCc2ccccc2)C1OCc1ccccc1 (some centres undefined),> 100 µM
16,CCO/C(O)=C(/C(=N)N1CCOCC1)C(=O)Nc1ccc(F)cc1,> 100 µM
17,C[C@H]1[C@H]2[C@H]3CC[C@@H]4[C@@]5(C)CC[C@H](O)C(C)(C)[C@@H]5CC[C@@]4(C)[C@]3(C)C[C@H](O)[C@@]2(C)C[C@H]2O[C@]21C,54.8 µM
18,N#C[C@H](c1ccccn1)c1nc2ccccc2nc1Cl,> 100 µM
19,O=C1COc2cccnc2N1CCCCO,> 100 µM
20,O=C(O)CCCc1nc2c(n1Cc1ccccc1)C(=O)c1ccccc1C2=O,> 100 µM
21,CCOC(=O)NC(Nc1ccc(C)cc1)(C(F)(F)F)C(F)(F)F,> 100 µM

# Test system: HCT-116 colon
# Assay: inhibition of tumour cell growth, NCI panel, 48 h
row,Structure (SMILES),TGI
1,Cc1ccc(S(=O)(=O)c2[nH]cc(/C(=C\C3CCCCC3)[N+](=O)[O-])c2C2CCCCC2)cc1,0.468 µM
2,Nc1ccc2c(c1)C(=O)N1CCC[C@H]1C(=O)N2,> 100 µM
3,CO/N=C(\C(=O)OC(=NC1CCCCC1)NC1CCCCC1)c1csc(NC(c2ccccc2)(c2ccccc2)c2ccccc2)n1,> 10 µM
4,CC1(C)C(C#N)C1C1=C(N2CCOCC2)[C@]2(C)C(OC(=O)c3ccccc3)CC[C@@H]2C1 (some centres undefined),> 100 µM
5,N#Cc1n[nH]n(-c2ccc(Br)cc2)c1=O,> 100 µM
6,CO[C@@]12C[C@@H](C)C3=CCC(C)=C3CC1=C(C)C(=O)O2,> 100 µM
7,N=C(N)C1CN(CCc2c[nH]c3ccccc23)C(=O)NC1=O (centres undefined),> 100 µM
8,CC1(C)[C@@H](Cn2ccc(=O)[nH]c2=O)CC[C@@]1(C)CO,> 100 µM
9,Cn1c(=O)c2c(ncn2CCNC(CO)C(O)c2ccc([N+](=O)[O-])cc2)n(C)c1=O (centres undefined),> 100 µM
10,CCCNC(=O)NNC(=O)c1c[nH]c2nc(C)ccc2c1=O,> 100 µM
11,C=CCCON(C(=O)OC(C)(C)C)C(C)(C)C,> 100 µM
12,NC(N)=NS(=O)(=O)c1ccc(NNc2c3ccccc3nc3c(C(=O)Nc4ccc(S(=O)(=O)Nc5ncccn5)cc4)cccc23)cc1,78.1 µM
13,O=c1oc2ccccc2cc1-c1cc2ccccn2c1,> 100 µM
14,CC(=O)CCn1c(=S)sc2ccccc21,> 100 µM
15,CC1CC(OP(=O)(OCc2ccccc2)OCc2ccccc2)[C@@H](OCc2ccccc2)C(OCc2ccccc2)C1OCc1ccccc1 (some centres undefined),> 100 µM
16,CCO/C(O)=C(/C(=N)N1CCOCC1)C(=O)Nc1ccc(F)cc1,> 100 µM
17,C[C@H]1[C@H]2[C@H]3CC[C@@H]4[C@@]5(C)CC[C@H](O)C(C)(C)[C@@H]5CC[C@@]4(C)[C@]3(C)C[C@H](O)[C@@]2(C)C[C@H]2O[C@]21C,36.3 µM
18,N#C[C@H](c1ccccn1)c1nc2ccccc2nc1Cl,> 100 µM
19,O=C1COc2cccnc2N1CCCCO,> 100 µM
20,O=C(O)CCCc1nc2c(n1Cc1ccccc1)C(=O)c1ccccc1C2=O,> 100 µM
21,CCOC(=O)NC(Nc1ccc(C)cc1)(C(F)(F)F)C(F)(F)F,> 100 µM

# Test system: CCRF-CEM leukemia
# Assay: inhibition of tumour cell growth, NCI panel, 48 h
row,Structure (SMILES),TGI
1,Cc1ccc(S(=O)(=O)c2[nH]cc(/C(=C\C3CCCCC3)[N+](=O)[O-])c2C2CCCCC2)cc1,0.991 µM
2,Nc1ccc2c(c1)C(=O)N1CCC[C@H]1C(=O)N2,20.5 µM
3,CO/N=C(\C(=O)OC(=NC1CCCCC1)NC1CCCCC1)c1csc(NC(c2ccccc2)(c2ccccc2)c2ccccc2)n1,> 10 µM
4,CC1(C)C(C#N)C1C1=C(N2CCOCC2)[C@]2(C)C(OC(=O)c3ccccc3)CC[C@@H]2C1 (some centres undefined),> 100 µM
5,N#Cc1n[nH]n(-c2ccc(Br)cc2)c1=O,> 100 µM
6,CO[C@@]12C[C@@H](C)C3=CCC(C)=C3CC1=C(C)C(=O)O2,> 100 µM
7,N=C(N)C1CN(CCc2c[nH]c3ccccc23)C(=O)NC1=O (centres undefined),> 100 µM
8,CC1(C)[C@@H](Cn2ccc(=O)[nH]c2=O)CC[C@@]1(C)CO,> 100 µM
9,Cn1c(=O)c2c(ncn2CCNC(CO)C(O)c2ccc([N+](=O)[O-])cc2)n(C)c1=O (centres undefined),> 100 µM
10,CCCNC(=O)NNC(=O)c1c[nH]c2nc(C)ccc2c1=O,> 100 µM
11,C=CCCON(C(=O)OC(C)(C)C)C(C)(C)C,> 100 µM
12,NC(N)=NS(=O)(=O)c1ccc(NNc2c3ccccc3nc3c(C(=O)Nc4ccc(S(=O)(=O)Nc5ncccn5)cc4)cccc23)cc1,> 100 µM
13,O=c1oc2ccccc2cc1-c1cc2ccccn2c1,> 100 µM
14,CC(=O)CCn1c(=S)sc2ccccc21,> 100 µM
15,CC1CC(OP(=O)(OCc2ccccc2)OCc2ccccc2)[C@@H](OCc2ccccc2)C(OCc2ccccc2)C1OCc1ccccc1 (some centres undefined),> 100 µM
16,CCO/C(O)=C(/C(=N)N1CCOCC1)C(=O)Nc1ccc(F)cc1,> 100 µM
17,C[C@H]1[C@H]2[C@H]3CC[C@@H]4[C@@]5(C)CC[C@H](O)C(C)(C)[C@@H]5CC[C@@]4(C)[C@]3(C)C[C@H](O)[C@@]2(C)C[C@H]2O[C@]21C,> 100 µM
18,N#C[C@H](c1ccccn1)c1nc2ccccc2nc1Cl,> 100 µM
19,O=C1COc2cccnc2N1CCCCO,> 100 µM
20,O=C(O)CCCc1nc2c(n1Cc1ccccc1)C(=O)c1ccccc1C2=O,43.8 µM
21,CCOC(=O)NC(Nc1ccc(C)cc1)(C(F)(F)F)C(F)(F)F,> 100 µM

# Test system: SF-295 CNS
# Assay: inhibition of tumour cell growth, NCI panel, 48 h
row,Structure (SMILES),TGI
1,Cc1ccc(S(=O)(=O)c2[nH]cc(/C(=C\C3CCCCC3)[N+](=O)[O-])c2C2CCCCC2)cc1,> 20.6 µM
2,Nc1ccc2c(c1)C(=O)N1CCC[C@H]1C(=O)N2,> 100 µM
3,CO/N=C(\C(=O)OC(=NC1CCCCC1)NC1CCCCC1)c1csc(NC(c2ccccc2)(c2ccccc2)c2ccccc2)n1,> 10 µM
4,CC1(C)C(C#N)C1C1=C(N2CCOCC2)[C@]2(C)C(OC(=O)c3ccccc3)CC[C@@H]2C1 (some centres undefined),> 100 µM
5,N#Cc1n[nH]n(-c2ccc(Br)cc2)c1=O,> 100 µM
6,CO[C@@]12C[C@@H](C)C3=CCC(C)=C3CC1=C(C)C(=O)O2,> 100 µM
7,N=C(N)C1CN(CCc2c[nH]c3ccccc23)C(=O)NC1=O (centres undefined),> 100 µM
8,CC1(C)[C@@H](Cn2ccc(=O)[nH]c2=O)CC[C@@]1(C)CO,> 100 µM
9,Cn1c(=O)c2c(ncn2CCNC(CO)C(O)c2ccc([N+](=O)[O-])cc2)n(C)c1=O (centres undefined),> 100 µM
10,CCCNC(=O)NNC(=O)c1c[nH]c2nc(C)ccc2c1=O,> 100 µM
11,C=CCCON(C(=O)OC(C)(C)C)C(C)(C)C,> 100 µM
12,NC(N)=NS(=O)(=O)c1ccc(NNc2c3ccccc3nc3c(C(=O)Nc4ccc(S(=O)(=O)Nc5ncccn5)cc4)cccc23)cc1,> 100 µM
13,O=c1oc2ccccc2cc1-c1cc2ccccn2c1,> 100 µM
14,CC(=O)CCn1c(=S)sc2ccccc21,> 100 µM
15,CC1CC(OP(=O)(OCc2ccccc2)OCc2ccccc2)[C@@H](OCc2ccccc2)C(OCc2ccccc2)C1OCc1ccccc1 (some centres undefined),> 100 µM
16,CCO/C(O)=C(/C(=N)N1CCOCC1)C(=O)Nc1ccc(F)cc1,> 100 µM
17,C[C@H]1[C@H]2[C@H]3CC[C@@H]4[C@@]5(C)CC[C@H](O)C(C)(C)[C@@H]5CC[C@@]4(C)[C@]3(C)C[C@H](O)[C@@]2(C)C[C@H]2O[C@]21C,37.4 µM
18,N#C[C@H](c1ccccn1)c1nc2ccccc2nc1Cl,> 100 µM
19,O=C1COc2cccnc2N1CCCCO,> 100 µM
20,O=C(O)CCCc1nc2c(n1Cc1ccccc1)C(=O)c1ccccc1C2=O,86.1 µM
21,CCOC(=O)NC(Nc1ccc(C)cc1)(C(F)(F)F)C(F)(F)F,> 100 µM

# Test system: UO-31 renal
# Assay: inhibition of tumour cell growth, NCI panel, 48 h
row,Structure (SMILES),TGI
1,Cc1ccc(S(=O)(=O)c2[nH]cc(/C(=C\C3CCCCC3)[N+](=O)[O-])c2C2CCCCC2)cc1,1.32 µM
2,Nc1ccc2c(c1)C(=O)N1CCC[C@H]1C(=O)N2,> 100 µM
3,CO/N=C(\C(=O)OC(=NC1CCCCC1)NC1CCCCC1)c1csc(NC(c2ccccc2)(c2ccccc2)c2ccccc2)n1,> 10 µM
4,CC1(C)C(C#N)C1C1=C(N2CCOCC2)[C@]2(C)C(OC(=O)c3ccccc3)CC[C@@H]2C1 (some centres undefined),> 100 µM
